Experimental findings from patent US6472348B1, “Pyridone derivatives and herbicides” (Kumiai Chemical Industry Co., Ltd., priority 1996, dated 2002) are described below.

Holding throughout (format): in vivo
The test system of assay [1] is rice flatsedge (Ci). The experiment in a line: Test Example 3: herbicidal effects by upland field foliage treatment. The following applies: 100 g of the active ingredient per 10 ares, evaluated on the 14th day after treatment. On the set-up: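 grade of growth control; 5 = at least 90%; 4 = 70 to 90%; 3 = 50 to 70%; 2 = 30 to 50%; 1 = 10 to 30%; 0 = under 10%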. The method in brief: (§1)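 Foliage-applied treatment on weeds pre-grown for 2 weeks in a greenhouse. Pots held sand (surface area 120 cm^2); seeds were sown and covered with soil. Evaluation: graded herbicidal effect 14 days post-application.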

Assay [2] has as its system pale smartweed (Po). Described as above. Also on record: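 grade of growth control; 5 = at least 90%; 4 = 70 to 90%; 3 = 50 to 70%; 2 = 30 to 50%; 1 = 10 to 30%; 0 = under 10%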. The following applies: 100 g of the active ingredient per 10 ares, evaluated on the 14th day after treatment. The gist of the method: as §1
For assay [3], the system named is barnyardgrass (Ec). The assay is described as above. On the set-up: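 grade of growth control; 5 = at least 90%; 4 = 70 to 90%; 3 = 50 to 70%; 2 = 30 to 50%; 1 = 10 to 30%; 0 = under 10%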. The following applies: 100 g of the active ingredient per 10 ares, evaluated on the 14th day after treatment. The method in brief:
as §1

The subject of assay [4] is Diaitaria ciliaris (Di). The description is as above. The following applies: 100 g of the active ingredient per 10 ares, evaluated on the 14th day after treatment. On the set-up: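 grade of growth control; 5 = at least 90%; 4 = 70 to 90%; 3 = 50 to 70%; 2 = 30 to 50%; 1 = 10 to 30%; 0 = under 10%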. The gist of the method: as §1
For assay [5], the system named is slender amaranth (Am). Described as above. Also on record: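 grade of growth control; 5 = at least 90%; 4 = 70 to 90%; 3 = 50 to 70%; 2 = 30 to 50%; 1 = 10 to 30%; 0 = under 10%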. Conditions: 100 g of the active ingredient per 10 ares, evaluated on the 14th day after treatment. The method in brief:
as §1

In assay [6] the test system is common lambsquarters (Ch). Described as above. Also on record: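 grade of growth control; 5 = at least 90%; 4 = 70 to 90%; 3 = 50 to 70%; 2 = 30 to 50%; 1 = 10 to 30%; 0 = under 10%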. Conditions: 100 g of the active ingredient per 10 ares, evaluated on the 14th day after treatment. The method in brief: as §1
In assay [7] the test system is monochoria (Mo). The experiment in a line: Test Example 1: herbicidal effects by paddy field soil treatment.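 Note: grade of growth control; 5 = at least 90%; 4 = 70 to 90%; 3 = 50 to 70%; 2 = 30 to 50%; 1 = 10 to 30%; 0 = under 10%.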 Conditions: 100 g of the active ingredient per 10 ares, 21st day after the application, index 0-5 of Table 47. The gist of the method:
(§2)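 Flooded paddy-soil pots (3 cm water) sown after puddling/leveling; treatment 100 g a.i./10 ares; greenhouse culture; herbicidal effect rated visually on a scoring scale at 21 d post-application.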

For assay [8], the system named is barnyardgrass (Ec). The assay is described as above. Conditions: 100 g of the active ingredient per 10 ares, 21st day after the application, index 0-5 of Table 47. The method in brief:
as §2

The subject of assay [9] is bulrush (Sc). The assay is described as above. Conditions: 100 g of the active ingredient per 10 ares, 21st day after the application, index 0-5 of Table 47. The gist of the method: as §2
Assay [10] relates to rice flatsedge (Ci). Description: Test Example 2: herbicidal effects by upland field soil treatment.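 Note: grade of growth control; 5 = at least 90%; 4 = 70 to 90%; 3 = 50 to 70%; 2 = 30 to 50%; 1 = 10 to 30%; 0 = under 10%.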 The following applies: 100 g of the active ingredient per 10 ares, 21st day after the application, index 0-5 of Table 47. The source says: (§3) (Test on Herbicidal Effects by Upland Field Soil Treatment)
The test system of assay [11] is pale smartweed (Po). Described as above. The following applies: 100 g of the active ingredient per 10 ares, 21st day after the application, index 0-5 of Table 47.
Description: as §3

Assay [12] concerns Digitaria ciliaris (Di). The assay is described as above. Conditions: 100 g of the active ingredient per 10 ares, 21st day after the application, index 0-5 of Table 47.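 Note: grade of growth control; 5 = at least 90%; 4 = 70 to 90%; 3 = 50 to 70%; 2 = 30 to 50%; 1 = 10 to 30%; 0 = under 10%.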
Description: as §3

The test system of assay [13] is barnyardgrass (Ec). The description is as above. The following applies: 100 g of the active ingredient per 10 ares, 21st day after the application, index 0-5 of Table 47.
Description: as §3

For assay [14], the system named is slender amaranth (Am). The assay is described as above. The following applies: 100 g of the active ingredient per 10 ares, 21st day after the application, index 0-5 of Table 47.
Description: as §3

The test system of assay [15] is common lambsquarters (Ch). The description is as above. The following applies: 100 g of the active ingredient per 10 ares, 21st day after the application, index 0-5 of Table 47.
Description: as §3

Molecules are shown by their SMILES.
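Throughout, for Herbicidal effects Sc: grade of growth control; 5 = at least 90%; 4 = 70 to 90%; 3 = 50 to 70%; 2 = 30 to 50%; 1 = 10 to 30%; 0 = under 10%.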

Take `CCS(=O)(=O)N(C)c1cc(-c2ccc(C(F)(F)F)n(C)c2=O)c(F)cc1Cl` [1-140]: the “Herbicidal effects Ci” value in assay [1] and in assay [10] was 5 throughout. The “Herbicidal effects Po” value in assay [2] and in assay [11] was 5 each time. The “Herbicidal effects Ec” value is given as 4 in assay [3], 5 in [8] and 5 in [13]. In addition, the “Herbicidal effects Di” value in assay [4] and in assay [12] was 5 in each case. In addition, the “Herbicidal effects Am” value in assay [5] and in [14] was 5 throughout. In addition, the “Herbicidal effects Ch” value in [6] and in assay [15] was 5 throughout. In [7], the “Herbicidal effects Mo” value was determined as 5. Moreover, the “Herbicidal effects Sc” value in assay [9] came out at 5.
With `Cn1c(C(F)(F)F)ccc(-c2cc(C(=O)[O-])c(Cl)cc2F)c1=O.[Na+]` [1-144], the “Herbicidal effects Ci” value in assay [1] and in assay [10] was 5 in each case. Also, the “Herbicidal effects Po” value in assay [2] and in [11] was 5 each time. Besides, the “Herbicidal effects Ec” value in assay [3], in [8] and in [13] was 5 in each case. Besides, the “Herbicidal effects Di” value in assay [4] and in assay [12] was 5 throughout. Also, the “Herbicidal effects Am” value in assay [5] and in assay [14] was 5 in each case. In addition, the “Herbicidal effects Ch” value in assay [6] and in [15] was 5 each time. Moreover, the “Herbicidal effects Mo” value in [7] was 5. Besides, the “Herbicidal effects Sc” value in assay [9] worked out at 5.
Turning to `CCCCOC(=O)COc1cc(-c2ccc(C(F)(F)F)n(C)c2=O)c(F)cc1Cl` [1-148], the “Herbicidal effects Ci” value in assay [1] and in assay [10] was 5 in each case. Moreover, the “Herbicidal effects Po” value in assay [2] and in [11] was 5 in each case. The “Herbicidal effects Ec” value in assay [3], in assay [8] and in [13] was 5 throughout. For the same molecule, the “Herbicidal effects Di” value in [4] and in [12] was 5 in each case. Further, the “Herbicidal effects Am” value in [5] and in [14] was 5 each time. In addition, the “Herbicidal effects Ch” value in assay [6] and in assay [15] was 5 in each case. For the same molecule, the “Herbicidal effects Mo” value in assay [7] came out at 5. In assay [9], the “Herbicidal effects Sc” value is on record as 5.
In the case of `CCCCCCOC(=O)COc1cc(-c2ccc(C(F)(F)F)n(C)c2=O)c(F)cc1Cl` [1-149], the “Herbicidal effects Ci” value in assay [1] and in assay [10] was 5 each time. Further, the “Herbicidal effects Po” value in [2] and in [11] was 5 each time. Also, the “Herbicidal effects Ec” value in assay [3], in [8] and in assay [13] was 5 throughout. Moreover, the “Herbicidal effects Di” value in [4] and in assay [12] was 5 each time. Also, the “Herbicidal effects Am” value in assay [5] and in assay [14] was 5 each time. In addition, the “Herbicidal effects Ch” value in [6] and in [15] was 5 each time. The “Herbicidal effects Mo” value in assay [7] was 5. The “Herbicidal effects Sc” value in assay [9] came to 5.
Take `CC=CCOc1cc(-c2ccc(C(F)(F)F)n(C)c2=O)c(F)cc1Cl` [1-152]: the “Herbicidal effects Ci” value in [1] and in assay [10] was 5 throughout. For the same molecule, the “Herbicidal effects Po” value in [2] and in assay [11] was 5 each time. The “Herbicidal effects Ec” value in assay [3], in assay [8] and in assay [13] was 5 throughout. Moreover, the “Herbicidal effects Di” value in assay [4] and in assay [12] was 5 in each case. Besides, the “Herbicidal effects Am” value in assay [5] and in assay [14] was 5 in each case. Moreover, the “Herbicidal effects Ch” value in assay [6] and in assay [15] was 5 throughout. Besides, the “Herbicidal effects Mo” value in [7] is 5. The “Herbicidal effects Sc” value in assay [9] was 5.
Turning to `COC(=O)c1cc(-c2ccc(C(F)(F)F)n(C)c2=O)c(F)cc1Cl` [1-157], the “Herbicidal effects Ci” value in [1] and in assay [10] was 5 in each case. Moreover, the “Herbicidal effects Po” value in assay [2] and in assay [11] was 5 in each case. Also, the “Herbicidal effects Ec” value in assay [3], in [8] and in assay [13] was 5 throughout. Also, the “Herbicidal effects Di” value in assay [4] and in [12] was 5 each time. Moreover, the “Herbicidal effects Am” value in assay [5] and in assay [14] was 5 each time. Moreover, the “Herbicidal effects Ch” value in assay [6] and in assay [15] was 5 in each case. For the same molecule, the “Herbicidal effects Mo” value in assay [7] is listed as 5. The “Herbicidal effects Sc” value in [9] is recorded as 5.
As to `CC(Oc1cc(-c2ccc(C(F)(F)F)n(C)c2=O)c(F)cc1Cl)C1CC1` (stereo not drawn) [1-161], the “Herbicidal effects Ci” value in assay [1] and in assay [10] was 5 in each case. In addition, the “Herbicidal effects Po” value in [2] and in [11] was 5 throughout. The “Herbicidal effects Ec” value in assay [3], in assay [8] and in [13] was 5 each time. In addition, the “Herbicidal effects Di” value in [4] and in [12] was 5 each time. Besides, the “Herbicidal effects Am” value in assay [5] and in assay [14] was 5 each time. For the same molecule, the “Herbicidal effects Ch” value in assay [6] and in assay [15] was 5 throughout. The “Herbicidal effects Mo” value in assay [7] stood at 5. Also, in [9], the “Herbicidal effects Sc” value is given as 5.
Consider `CCOCCOc1cc(-c2ccc(C(F)(F)F)n(C)c2=O)c(F)cc1Cl` [1-163], for which the “Herbicidal effects Ci” value in assay [1] and in assay [10] was 5 each time. Moreover, the “Herbicidal effects Po” value in [2] and in assay [11] was 5 throughout. Besides, the “Herbicidal effects Ec” value in [3], in assay [8] and in [13] was 5 in each case. For the same molecule, the “Herbicidal effects Di” value in assay [4] and in assay [12] was 5 in each case. The “Herbicidal effects Am” value in [5] and in assay [14] was 5 throughout. Moreover, the “Herbicidal effects Ch” value in assay [6] and in [15] was 5 in each case. In assay [7], the “Herbicidal effects Mo” value worked out at 5. For the same molecule, the “Herbicidal effects Sc” value in [9] stood at 5.
For `Cn1c(C(F)(F)F)ccc(-c2cc(C=NO)c(Cl)cc2F)c1=O` [1-164], the “Herbicidal effects Ci” value in [1] and in [10] was 5 throughout. Also, the “Herbicidal effects Po” value in assay [2] and in assay [11] was 5 each time. Further, the “Herbicidal effects Ec” value in assay [3], in assay [8] and in [13] was 5 throughout. In addition, the “Herbicidal effects Di” value in assay [4] and in [12] was 5 throughout. The “Herbicidal effects Am” value in assay [5] and in assay [14] was 5 in each case. Further, the “Herbicidal effects Ch” value in assay [6] and in [15] was 5 in each case. Besides, the “Herbicidal effects Mo” value in assay [7] is 5. In addition, in [9], the “Herbicidal effects Sc” value is on record as 5.
In the case of `Cn1c(C(F)(F)F)ccc(-c2cc(SC3CCCO3)c(Cl)cc2F)c1=O` (stereo not drawn) [1-165], the “Herbicidal effects Ci” value in assay [1] and in assay [10] was 5 throughout. In addition, the “Herbicidal effects Po” value in assay [2] and in assay [11] was 5 throughout. Moreover, the “Herbicidal effects Ec” value in assay [3], in [8] and in assay [13] was 5 throughout. For the same molecule, the “Herbicidal effects Di” value in [4] and in assay [12] was 5 in each case. The “Herbicidal effects Am” value in assay [5] and in [14] was 5 in each case. The “Herbicidal effects Ch” value in assay [6] and in [15] was 5 throughout. Moreover, the “Herbicidal effects Mo” value in assay [7] worked out at 5. In addition, the “Herbicidal effects Sc” value in assay [9] is recorded as 5.
Regarding `CCCCOc1cc(-c2ccc(C(F)(F)F)n(C)c2=O)c(F)cc1Cl` [1-166], the “Herbicidal effects Ci” value in assay [1] and in [10] was 5 in each case. The “Herbicidal effects Po” value in assay [2] and in assay [11] was 5 throughout. The figures for the “Herbicidal effects Ec” value in assay [3], in assay [8] and in assay [13] were 4, 5 and 5, respectively. Moreover, the “Herbicidal effects Di” value in assay [4] and in assay [12] was 5 in each case. The “Herbicidal effects Am” value in [5] and in assay [14] was 5 in each case. Also, the “Herbicidal effects Ch” value in [6] and in [15] was 5 throughout. Besides, the “Herbicidal effects Mo” value in assay [7] turned out to be 5. Besides, in assay [9], the “Herbicidal effects Sc” value came out at 5.
